According to patent US9133435B2, “Method for induction/differentiation into photoreceptor cell” (RIKEN, priority 2007, dated 2015):
Blank lines part the entries; values can stand above or below the molecule they belong to.

Columns and labels:
mouse ES cells = assay: Induction of differentiation of mouse ES cells into neural cells (βII tubulin-positive cells); assay type: cell-based; conditions: SB-431542 0.1 to 10 μM or CKI-7 1 to 100 μM, single agent
Procedure: Mouse ES cells were cultured in the presence of SB-431542 (0.1 to 10 μM) and/or CKI-7 (1 to 100 μM) under SFEB conditions. Five days after the start of the culture, the cells were recovered and re-suspended in a fresh differentiation medium, and, to produce re-aggregated pellets, the suspension was centrifuged at 800 g for 10 minutes. After cultivation at 37° C. for 1 hour, three to five re-aggregated pellets per cm^2 were replated onto poly-D-lysine/laminin/fibronectin-coated culture slides, along with differentiation medium. After cultivation for 5 days, the cells were fixed and stained with anti-βII tubulin antibody, and the ratio of βII tubulin-positive cells was determined under microscopy. The other experimental conditions were the same as those for Example 1.

[1] = test system: FACS-purified ES-derived Rx-GFP+ retinal progenitor cells; assay: Differentiation of FACS-purified ES-derived retinal progenitor cells into Crx+ photoreceptor precursors (immunostaining); assay type: cell-based, mouse
Procedure: Methods for mouse ES cell maintenance and differentiation in SFEB conditions were previously reported (reference documents A7, 20). For the sake of the SFEB/DLFA, Dkk1 (R & D Systems, 100 ng/ml, during days 0-5), LeftyA (R & D Systems, 500 ng/ml, during days 0-5), 5% FCS (JRH Biosciences, during days 3-5), and Activin-A (R & D Systems, 10 ng/ml, during days 4-5) were added to a differentiation medium (G-MEM, 5% KSR, 0.1 mM non-essential amino acids, 1 mM pyruvic acid, and 0.1 mM 2-mercaptoethanol) (reference document A6).
(§1) For FACS (see below), until day 9, cell aggregates were incubated in a differentiation medium under suspension culture conditions. After FACS, 1−2×10^4 sorted cells were re-suspended in a differentiation medium containing 10% FCS, and to produce re-aggregated pellets, the suspension was centrifuged at 800 g for 10 minutes. After cultivation at 37° C. for 1 hour, three to five re-aggregated pellets per cm^2 were replated on a poly-D-lysine/laminin/fibronectin-coated culture slides with a differentiation medium supplemented with 10% FCS. On day 10, the culture medium was changed to a differentiation medium not containing FCS, and containing or not containing the gamma secretase inhibitor N—[N-(3,5-difluorophenacetyl)-L-alanyl]-S-phenylglycine t-butyl ester (DAPT, 10 μM, Calbiochem).
On day 9, SFEB/DLFA-treated ES cell aggregates were dissociated with trypsin (0.25%, Invitrogen) and DNaseI (10 μg/ml, Sigma) into single cells. After neutralization, the cells were re-suspended in HBSS containing 0.1% BSA and 5 μg/ml propidium iodide (PI, Sigma), and passed through a cell strainer (BD) as described previously (reference documents A7, 21). The cells were counted and sorted using FACS Aria (BD Biosciences), and data were analyzed using the FACS Diva software (BD Biosciences). Dead cells were excluded by gating forward and side scatter and PI staining. Cells with Rx-GFP fluorescence (band-pass filter: FITC, 530 nm) were sorted and further cultured. […]
(§2) The immunoreactivity of each antibody was confirmed by immunostaining an appropriate retinal tissue as a positive control under the same conditions. Total cell counts were determined by counting nuclei stained by TOTO-3 or DAPI (Molecular Probes). Positive cells were counted in optical slice images prepared by confocal (Leica) or ApoTome (Zeiss) microscopy.
For statistical analyses, at least 2500 cells were examined in each experiment, which was performed at least 3 times. […] The statistical significance of differences was determined by one-way analysis of variance (ANOVA) followed by Tukey's test for the experiments in FIG. 1f, by one-way ANOVA followed by Dunnett's multiple comparison test for the experiment in FIG. 3b, by two-way ANOVA followed by Bonferroni's test for the experiment in FIG. 1j-l. […]

Retinae of E17.5 mouse = assay: Tissue culture of embryonic retina treated with DAPT (Crx staining, RT-PCR); assay type: cell-based; conditions: 10 μM DAPT
Procedure: FIG. 4 The gamma secretase inhibitor DAPT promotes the differentiation of photoreceptor precursors. Retinae of E17.5 mouse were treated, or not treated, with 10 μM DAPT under tissue culture conditions for 2-4 days. (a, b) Two days later, the retinae were stained for Crx (green) and TOTO-3 (blue). Many Crx^+ (green) photoreceptor precursors were found in the DAPT-treated retina (a), whereas several Crx^+ were found in non-treated retina (b). GC, ganglion cell layer; NBL, neuroblastic layer; ONL, outer nuclear layer. (c) RT-PCR analysis of retina treated or not treated with DAPT for 2 or 4 days. It was confirmed that the expression of Hes1 and Hes5 had been decreased in the DAPT-treated retina.
RT-PCR analysis was performed as reported previously (reference documents A7, 20). The primers used are as follows: […]

purified Rx+ cells = assay: Ki67 expression, BrdU uptake and active caspase 3 in purified Rx+ cells; assay type: cell-based, mouse
Procedure: as §1
BrdU uptake was examined by culturing the cells in a medium containing 5 μg/ml BrdU for 24 hours before fixation.
(§3) Immunohistological staining was performed as described previously (reference documents A20, 24). The primary antibodies used in this study were as follows: • Anti-Crx (rat/polyclonal/1:200, reference document A6), • Anti-Ki67 (mouse/monoclonal/1:200/BD), • Anti-BrdU (mouse/monoclonal/1:50/BD), • Anti-active caspase-3 (rabbit/monoclonal/1:500/BD), • Anti-red/green opsin (rabbit/polyclonal/1:1000/Chemicon), • Anti-blue opsin (rabbit/polyclonal/1:500/Chemicon), • Anti-rhodopsin (RetP1; mouse/monoclonal/1:1000/SIGMA) and • Anti-Recoverin (rabbit/polyclonal/1:5000/Chemicon).
as §2
(§4) For statistical analyses, at least 2500 cells were examined in each experiment, which was performed at least 3 times. All statistical analyses were performed using GraphPad InStat version 3.0 (GraphPad Software Inc., San Diego, Calif., USA). The statistical significance of differences was determined by one-way analysis of variance (ANOVA) followed by Tukey's test for the experiments in FIG. 1f, by one-way ANOVA followed by Dunnett's multiple comparison test for the experiment in FIG. 3b, by two-way ANOVA followed by Bonferroni's test for the experiment in FIG. 1j-l. Probability values less than 5% were considered significant.

[2] = test system: purified ES-derived Rx+ cells; assay: Differentiation of ES-derived photoreceptor precursors into opsin+ cone and rhodopsin+ rod photoreceptors; assay type: cell-based, mouse; conditions: for rod differentiation, factor added individually: after FACS purification and DAPT, acidic FGF 50 ng/ml, basic FGF 10 ng/ml, taurine 1 mM, shh 3 nM, RA 500 nM, from day 16, day 28
Procedure: as §1
For photoreceptor differentiation, on day 16, the medium was replaced with a retinal culture medium containing the factors shown in FIG. 3a (66% E-MEM-HEPES (Sigma M7278), 33% HBSS (Gibco 24020-117), 1% FCS supplemented with N2, 5.75 mg/ml glucose, 200 μM L-glutamine, 100 U/ml penicillin, and 100 μg/ml streptomycin (Gibco)). aFGF (R & D Systems) and bFGF (R & D Systems) were added during differentiation for 16-24 days; taurine (Sigma), shh (R & D Systems), and RA (Sigma) were added during differentiation days 16-28. The medium was replaced with a fresh supply every 2 days.
as §3, §2, §4

monkey ES cells = assay: Differentiation of monkey ES cells into retinal cells (SFEB culture, immunocytochemistry); assay type: cell-based, cynomolgus monkey; conditions: day 40, Dkk-1 100 ng/ml, Lefty-A 500 ng/ml
Procedure: ES colonies were partially dissociated with 0.25% trypsin (in a PBS containing 1 mM CaCl2 and 20% KSR) into clumps (5 to 10 cells per clump). It is noticeable that when this clumps of ES cells were too large (for example, exceeding 50 cells per aggregate), the neural induction efficiency declined. When ES cells dispersed to single cells were used, the cell viability declined, and retinal cells could not efficiently be induced. ES clumps were incubated on a gelatin-coated dish for 30 minutes, whereby STO feeders were removed. ES clumps were plated on a dish of bacterial grade using an ES differentiation medium at a density of 6.7×10^3 aggregate per ml. The composition of the differentiation medium was as follows. [G-MEM (GIBCO), 10% KSR, Lot.1139720 and 1219101, 0.1 mM non-essential amino acids, 1 mM pyruvate and 0.1 mM 2-mercaptoethanol]. […]
Values are expressed as means±S.E.M. For statistic analysis, 100 to 200 colonies in each experiment were examined, each experiment being performed at least 3 times. […] For the experiments in FIG. 7b, statistical significance of difference was determined by one-way analysis of variance (ANOVA) followed by Dunnet's test. The data obtained from FIG. 8a, d, e, h and i were evaluated by unpaired t-test. […]

[3] = DAPT from day 10, retinal differentiation medium from day 16, day 28

Molecule: NCCNS(=O)(=O)c1ccc(Cl)c2ccncc12 [CKI-7, N-(2-aminoethyl)-5-chloro-isoquinoline-8-sulfonamide]
number of βII tubulin-positive cells (mouse ES cells): increased

ratio of Crx+ photoreceptor precursors in embryonic retinal tissue (Retinae of E17.5 mouse; tissue culture): considerably increased
proportion of cells positive for active caspase (purified Rx+ cells; day 11): 0.17±0.04%
proportion of cells positive for active caspase (purified Rx+ cells; day 12): 0.13±0.04%
proportion of cells positive for active caspase (purified Rx+ cells; day 14): 0.10±0.07%
proportion of cells positive for active caspase (purified Rx+ cells; day 16): 0.10±0.01%
proportion of cells positive for active caspase (purified Rx+ cells; day 18): 0.13±0.02%
proportion of cells positive for active caspase (purified Rx+ cells; day 20): 0.10±0.15%
proportion of cells positive for active caspase, DAPT-treated versus non-treated (purified Rx+ cells; days 11-20, Ki67+ population): no significant difference
Molecule: C[C@H](NC(=O)Cc1cc(F)cc(F)c1)C(=O)N[C@H](C(=O)OC(C)(C)C)c1ccccc1 [DAPT, N—[N-(3,5-difluorophenacetyl)-L-alanyl]-S-phenylglycine t-butyl ester]
frequency of Crx+ cell aggregates ([1]; 10 μM DAPT, most effective on days 10 to 20): significantly raised
Crx expression in Rx-GFP− cells ([1]; Rx-GFP− cells treated with DAPT from day 10, day 20): did not express Crx
promotion of differentiation into Crx+ photoreceptor precursors in non-FACS-sorted cells ([1]; non-FACS-sorted ES cell-derived neural retinal progenitor cells treated with DAPT): no evident promotion
percentage of Crx+ cells ([1]; sorted Rx-GFP+ cells, 10 μM DAPT from day 10, determined on day 20): 22.4±2.9%
expression of the differentiation inhibitors Hes1 and Hes5 (Retinae of E17.5 mouse; tissue culture 2 or 4 days, RT-PCR): suppressed
Ki67+ cell population versus non-treated cells (purified Rx+ cells; day 14 and thereafter, DAPT from day 10): smaller
BrdU+ cells versus non-treated control (purified Rx+ cells; days 14-20, BrdU uptake 24 hours): fewer
ES-derived cells expressing blue opsin [2, 3]: 10.7±1.6%
ES-derived cells expressing red/green opsin [2, 3]: 11.5±2.0%
cells expressing rhodopsin ([2]; DAPT only, no further factors, day 28): 5.5±0.5%

Molecule: NC(=O)c1ccc(-c2nc(-c3ccc4c(c3)OCO4)c(-c3ccccn3)[nH]2)cc1 [SB-431542]
number of βII tubulin-positive cells (mouse ES cells): increased

Molecule: NCCS(=O)(=O)O [taurine]
rod differentiation, factor added individually [2]: promoted rod differentiation

Molecule: acidic FGF: acidic FGF (R & D Systems), soluble factor
rod differentiation, factor added individually [2]: promoted rod differentiation

Molecule: basic FGF: basic FGF (R & D Systems), soluble factor
rod differentiation, factor added individually [2]: promoted rod differentiation

B1: Lefty-A: Lefty-A protein, nodal antagonist (protein, UniProt O00292 77-366, looked up)
Left-right determination …: RFSQSFREVAGRFLASEASTHLLVFGMEQRLPPNSELVQAVLRLFQEPVPKAALHRHGRLSPRSAQARVTVEWLRVRDDGSNRTSLIDSRLVSVHESGWKAFDVTEAVNFWQQLSRPRQPLLLQVSVQREHLGPLASGAHKLVRFASQGAPAGLGEPQLELHTLDLRDYGAQGDCDPEAPMTEGTRCCRQEMYIDLQGMKWAKNWVLEPPGFLAYECVGTCQQPPEALAFNWPFLGPRQCIASETASLPMIVSIKEGGRTRPQVVSLPNMRVQKCSCASDGALVPRRLQP
ratio of Mitf+ colonies (monkey ES cells): 50.8±5.0%

B2: Dkk-1: Recombinant Dkk-1 protein, Wnt antagonist (protein, UniProt O94907 32-266, looked up)
Dickkopf-related protein 1: TLNSVLNSNAIKNLPPPLGGAAGHPGSAVSAAPGILYPGGNKYQTIDNYQPYPCAEDEECGTDEYCASPTRGGDAGVQICLACRKRRKRCMRHAMCCPGNYCKNGICVSSDQNHFRGEIEETITESFGNDHSTLDGYSRRTTLSSKMYHTKGQEGSVCLRSSDCASGLCCARHFWSKICKPVLKEGQVCTKHRRKGSHGLEIFQRCYCGEGLSCRIQKDHHQASNSSRLHTCQRH
ratio of Mitf+ colonies (monkey ES cells): 35.3±4.4%
